Measured values as given in Sander's compilation of Henry's law constants (doi:10.1021/je970046g).

Assay: Henry solubility constant Hcp at 293 K (mol/(m3 Pa))
Settings: reference: Hovorka and Dohnal (1997)
With ClC(Cl)C(Cl)Cl [1,1,2,2-tetrachloroethane] the “Henry solubility constant Hcp at 293 K” value was 0.03. In the case of Clc1ccccc1 [chlorobenzene], the “Henry solubility constant Hcp at 293 K” value is reported as 0.0035. With CC(Cl)CCl (centres undefined) [1,2-dichloropropane] the “Henry solubility constant Hcp at 293 K” value was 0.0046. In the case of ClC=C(Cl)Cl [trichloroethene], the “Henry solubility constant Hcp at 293 K” value is reported as 0.0013. For BrC(Br)Br [tribromomethane], the “Henry solubility constant Hcp at 293 K” value was 0.023. With ClC(Cl)=C(Cl)Cl [tetrachloroethene] the “Henry solubility constant Hcp at 293 K” value was 0.00084. In the case of ClCC(Cl)Cl [1,1,2-trichloroethane], the “Henry solubility constant Hcp at 293 K” value is reported as 0.015. For ClCc1ccccc1 [(chloromethyl)-benzene], the “Henry solubility constant Hcp at 293 K” value was 0.028. In the case of Clc1cccc(Cl)c1 [1,3-dichlorobenzene], the “Henry solubility constant Hcp at 293 K” value is reported as 0.0047. In the case of Clc1ccc(Cl)cc1 [1,4-dichlorobenzene], the “Henry solubility constant Hcp at 293 K” value is reported as 0.0054. For ClCCl [dichloromethane], the “Henry solubility constant Hcp at 293 K” value was 0.0051. With BrCBr [dibromomethane] the “Henry solubility constant Hcp at 293 K” value was 0.015. In the case of CC(Cl)(Cl)Cl [1,1,1-trichloroethane], the “Henry solubility constant Hcp at 293 K” value is reported as 0.00079. With Brc1ccccc1 [bromobenzene] the “Henry solubility constant Hcp at 293 K” value was 0.0061.
